In patent publication US20020061849A1, “Methods for treatment of diseases associated with inflammation under non-ischemic conditions” (priority 2000, published 2002):

Assays:
AQP2 = assay: Bilateral ureteral obstruction (BUO), semiquantitative immunoblotting of AQP2; format: in vivo, rat; settings: inner medulla, 24 h BUO; α-MSH 50 μg i.v. at onset and 12 hours later (nontreated 13±4%); epoitin 100 U/kg/day i.p. (nontreated 16±3%)
Description: (§1) Adult Munich-Wistar rats were anesthetized with halothane and placed on a heating board under an operating microscope, Through a midline abdominal incision both ureters were exposed and occluded by placing a 5-mm piece of bisected polyethylene tubing (PE-50) around the midportion of each ureter. The ureter was then occluded by tightening the tubing with a 5-0 silk ligature. 24 hours later, the obstructed ureters were decompressed by removal of the ligature and the PE-50 tubing. Done in this manner, both ureters could be completely occluded for 24 h and without evidence of functional impairment of ureteral function and rats followed up to several days after release of obstruction.
(§2) Protocol III-1: This protocol included 1) Rats with BUO for 24 hours (n=20) and 2) sham-operated rats (n=10).
Protocol III-6: This protocol included 1) Rats with BUO for 24 hours and 2) sham-operated rats. […]
(§3) ECL films with bands within the linear range were scanned using an AGFA scanner (ARCUS II) and Corel Photopaint Software to control the scanner. […] The labeling density was determined of blots where samples of kidneys from α-MSH treated and nontreated groups were run together with samples from control kidneys. […]

[1] = test system: adriamycin-induced nephrotic syndrome; assay: Adriamycin-induced nephrotic syndrome
Description: Protocol IV-1. Rats were treated with adriamycin (7.5 mg/kg i.p.; n=12) and followed for 21 days, respectively. Shams received saline i.p. (n=6). […] The other half received vehicle (saline) in osmotic minipumps.
Protocol IV-3. Rats were treated with adriamycin (7.5 mg/kg i.p.; n=8) and followed for 21 days, respectively. Shams received saline i.p. (n=6). Half of the adriamycin treated animals received epoetin (100 units/kg/day) during the entire experiments. The other half received vehicle (saline).

[2] = test system: renal function in rats treated with continious LPS infusion; assay: Systemic LPS infusion by osmotic minipump for three days, renal function; settings: for increase of GFR (creatinin clearance) compared to the LPS-Vehicle group: LPS infusion for three days; for survival during 3 days of LPS-administration: N=5 per group, mortality in vehicle group 20%
Description: To relieve postoperative pain, rats were treated with buprenorfin, 0.2 mg/kg body weight i.p. Two weeks later the rats were anesthetized with halothane-nitrous oxide and a osmotic minipump (Alzet 1003D)filled with a LPS solution was implanted into the abdomen. The mean infusion rate of LPS was 200 μg/kg/hour. All rats except the control rats received LPS infusion. N=5 in all groups.
Protocol II: Systemic LPS-infusion:
II-1. Controls. Untreated rats without LPS infusion.
II-2 Vehicle: Rats receiving LPS infusion treated with 0.5 ml 0.9% NaCl twice daily.
II-3 rh-EPO: Rats receiving LPS infusion treated with 200 I.U. epoitin alpha (EPO)/kg body weight in 0.5 ml 0.9% NaCl twice daily.

[3] = test system: lung tissue exposed with LPS; assay: LPS-inhalation induced lung inflammation, differential counting of lavage cells; settings: rats, LPS inhalation 5 mg for 20 min, lavage 24 h later, treatment at onset of LPS and after 12 hours (α-MSH 50 μg i.v.; Epoitin 100 U/kg/day i.p.)
Description: Studies were performed on male Spraque Dawley rats (Møllegard Breeding centre Ltd., Eiby, Denmark). The rats were maintained on a standard rodent diet (Altromin, Lage, Germany) with free access to water. Inflammation of the lungs (asthma) was induced by LPS inhalation with the animals anesthetized using Midazolam and Hypnorm The LPS was administrated by connecting the rat to a semiclosed breathing system consisting of a MAXIN bottle filled with a mixture of LPS in saline connected to a standard inhalation chamber. Each animals is exposed for 20 min with 5 mg LPS. Twenty-four hours after exposure to LPS rats were killed. Subsequently, lavage was performed by washing the lungs with PBS (5 ml) 6 times. The lung tissue was then centrifuged for 10 min (1000 rpm) and resuspended in 0.5 ml. From each sample 2 blood smears were made. They were air-dryed, fixed and counterstained for differential cell counting.

AQP1 = assay: Bilateral ureteral obstruction (BUO), semiquantitative immunoblotting of AQP1; format: in vivo, rat
Description: as §1
(§4) Protocol III-2: This protocol included 1) Rats with BUO for 24 hours and followed by release for 5 hours (n=10) and 2) Sham operated rats (n=5). The rats with BUO-R were divided into two groups: α-MSH nontreated (n=5) and α-MSH treated (n=5). α-MSH ([…], i.v.) was given at the onset of BUO, 12 hours later and at the onset of release.
(§5) Protocol III-3: This protocol included 1) Rats with BUO for 24 hours and followed by release for 48 hours. The rats were divided into two groups: α-MSH nontreated (n=10) and α-MSH treated (n=13). α-MSH (50 μg) was given with micro-osmotic pump via jugular vein at the onset of BUO. 2) Sham operated rats (n=8) treated with vehicle with micro-osmotic pump.
Inner medulla and whole kidneys were homogenized (0.3 M sucrose, 25 mM imidazole, 1 mM EDTA, pH 7.2, containing 8.5 μM leupeptin. 1 mM phenylmethyl sulfonylfluoride) using an ultra-turrax T8 homogenizer (IKA Labortechnik, Germany), at 5 strokes for 20 seconds (inner medulla) or at 5.5 strokes for 30 seconds (whole kidney) and the homogenate was centrifuged in an Eppendorf centrifuge at 4000 g for 15 minutes at 4° C. to remove whole cells, nuclei and mitochondria. Gel samples (Laemmli sample buffer containing 2% SDS) were made of this pellet.
[…] For each gel, identical gel was run in parallel and subjected to Coomassie staining to assure identical loading. Then gels were subjected to immunoblotting. […] The labeling was visualized with horseradish peroxidase (HRP)-conjugated secondary antibodies (P448, DAKO, Glostrup Denmark, diluted as 1:3000) using an enhanced chemiluminescence system (ECL, Amersham International, UK).
as §3, with “scanner. For AQP1 and AQP2, both the 29-kDa and the 35- to 50-kDa bands (corresponding to nonglycosylated and the glycosylated species) were scanned.” for “scanner.”

AQP3 = assay: Bilateral ureteral obstruction (BUO), semiquantitative immunoblotting of AQP3; format: in vivo, rat; settings: inner medulla
Description: as §1, §2
Protocol III-2: This protocol included 1) Rats with BUO for 24 hours and followed by release for 5 hours (n=10) and 2) Sham operated rats (n=5). […]
as §3

Na,K-ATPase = assay: Bilateral ureteral obstruction (BUO), semiquantitative immunoblotting of Na,K-ATPase; format: in vivo, rat; settings: whole kidney; for Na-K-ATPase levels, % of control: nontreated 35-50% of control levels
Description: as §1, §2, §4
as §5, with “pump. […]” for “pump.”
as §3

[4] = test system: renal function in rats with BUO; assay: Bilateral ureteral obstruction (BUO), plasma parameters and clearance studies; format: in vivo, rat
Description: as §1, §2, §5
1) Rats with BUO for 24 hours followed by release for 48 hours (n=10) and 2) sham-operated rats (n=5).
Weight, water intake, food intake and urine output were observed during the rats were maintained in the metabolic cages. Urine was collected over 24-h periods throughout the study. Urine volume, osmolality, creatinine, sodium and potassium concentration were measured. Plasma was collected from abdominal aorta at the time of sacrifice for measurement of sodium and potassium concentration, creatinine, and osmolality. In protocols 4 and 9 detailed examinations of renal function was performed: The experiments were carried out between 8 a.m. and 1 p.m. The rats were transferred to a restraining cage and connected to infusion pumps via the vein catheter and to a BP transducer via the arterial catheter. Urine was collected in three periods of 20 min preceded by an equilibration period of 105 min. Throughoutthe experiment, a half isotone saline (77 mM NaCl) was infused at a rate of 70 μl/min to maintain a minimum urine flow necessary for accuracy of the bladder emptying. ^14C-tetraethylammonium bromide (0.83 μCi/ml; New England Nuclear, Boston, Mass.), together with ^3H-inulin (2.5 μCi/ml; Amersham, Rainham, United Kindgom) and LiCI (13 mmol/L), were infused together with the saline as markers of effective renal plasma flow (ERPF), GFR, and tubular fluid delivery from proximal tubules (Vprox), respectively. A bolus of markers four times the continuous infusion velocity was given in the first 15 min. Blood samples (200 μl) were drawn from the arterial catheter after 105 and 165 min. Blood substitution with donor blood was given after each blood sample. Mean arterial BP was recorded continuously using a Uniflow™ transducer (Baxter, Irvine, Calif.) connected to a preamplifier and PC registration. Clearance experiments were carried out in BUO and SHAM rats 7 days prior to obstruction and 48 hours after release of BUO.
Urine volume was determined by gravimetric means.

[5] = test system: purimycin-induced nephrotic syndrome; assay: Purimycin (PAN)-induced nephrotic syndrome
Description: Nephrotic syndrome was induced by a single i.p. or s.c. injection of adriamycin or purimycin (at various doses) and the rats were followed for 7 days-21 days. Development of severe nephrotic syndrome was established by monitoring the total body weight, urinary protein excretion (proteinuria) and at time of ending the experiment the volume of fluid in the abdominal cavity was determined (rats develop severe water retention and ascites).
Protocol IV-2. Rats were treated with purimycin (100 mg/kg i.p., n=6) and followed for 11 days, respectively.
To determine the levels of proteinuria in experimental nephrotic syndrome urine was examined daily using Albym (Boehringer-Mannheim).

[6] = BUO for 24 h followed by 48 h of release

epoitin alpha was tested, and the “AQP2 expression, % of sham level” value (AQP2) was 30±18%, the “ascites formation, result in words” value ([1]; adriamycin-induced nephrotic syndrome, EPO once every 24 hours) was “prevented the ascites formation” and the “increase of GFR (creatinin clearance) compared to the LPS-Vehicle group” value [2] was 51%. The “survival during 3 days of LPS-administration” value [2] was “All animals survived”, the “Differential counting of cells %, Eosinofiles” value [3] was 0.7 ± 0.6% and the “Differential counting of cells %, Lymfocytes” value [3] was 77.1 ± 9.9%. The “Differential counting of cells %, Monocytes” value [3] was 11.4 ± 4.6%, the “Differential counting of cells %, Neutrofiles” value [3] was 10.9 ± 12.7% and the “Differential counting of cells %, Eosinofiles” value ([3]; listed as epoitin) was 0.7±0.6%. For the same substance, the “Differential counting of cells %, Neutrofiles” value ([3]; listed as epoitin) was 10.9±12.7%.
“α-melanocyte-stimulating hormone [α-MSH]” was tested, and the “AQP1 expression, % of sham level” value (AQP1; outer medulla and cortex, 24 h BUO followed by release for 5 hours, nontreated 35±2%) was 62±9%, the “AQP1 expression, % of sham level” value (AQP1; outer medulla and cortex, 24 h BUO followed by release for 48 hours, α-MSH by micro-osmotic pump) was 73±8% and the “AQP1 expression, % of sham level” value (AQP1; whole kidney, 24 h BUO followed by release for 5 hours, α-MSH 50 μg i.v. at onset, 12 hours later and at release, nontreated 7±2%) was 81±21%. For the same substance, the “AQP1 expression, % of sham level” value (AQP1; whole kidney, 24 h BUO followed by release for 48 hours, α-MSH 50 μg by micro-osmotic pump, nontreated 24±5%) was 58±6%, the “AQP2 expression, % of sham level” value (AQP2) was 38±5% and the “AQP3 expression, % of sham level” value (AQP3; 24 h BUO followed by release for 5 hours, nontreated 14±5%) was 34±4%. For the same substance, the “AQP3 expression, % of sham level” value (AQP3; 24 h BUO, α-MSH 50 μg i.v. at onset and 12 hours later, nontreated 19±4%) was 44±3%, the “Na-K-ATPase levels, % of control” value (Na,K-ATPase; 24 h BUO followed by 5 h of release) was 102±14% and the “Na,K-ATPase levels” value (Na,K-ATPase; 24 h BUO, result in words) was “completely normalized”. The “Na-K-ATPase levels, % of control” value (Na,K-ATPase; 48 hours after release of BUO) was 114±10%, the plasma sodium levels ([4]; 24 h BUO, without α-MSH 135±2 mmol/L) was 139 ± 0.6 mmol/L and the “Glomerular filtration rate (GFR)” value ([4]; 48 hours after release of BUO, SHAM 840±105) was 705±85 μl/min/100 g. For the same substance, the “Effective renal plasma flow (ERPF)” value ([4]; 48 hours after release of BUO, SHAM 2633±457) was 2598±129 μl/min/100 g, the plasma urea ([4]; BUO for 24 h followed by 48 of release, nontreated 35±9 mmol/l) was 13 ± 2 mmol/L and the Plasma creatinine levels ([4]; BUO for 24 h followed by 48 of release, nontreated 160±34 μmol/l) was 79 ± 34 µmol/L. For the same substance, the “ERPF, result in words” value [4, 6] was “completely normalized”, the “GFR, result in words” value [4, 6] was “completely normalized” and the “prevention of ascites production” value ([1]; adriamycin i.p. (Protocol IV-1), α-MSH for 3-4 days after injection) was 89±7%. For the same substance, the proteinuria levels ([5]; PAN rats at day 5 after PAN injection (FIG. 3), result in words) was “marked reduction”, the proteinuria ([5]; low dose purimycin treatment (Protocol IV-2), result in words) was “marked reduction” and the “reduction of ascites production” value ([5]; low dose purimycin treatment, n=6 (Protocol IV-2)) was 80±8%. For the same substance, the “preventive effect on nephrotic syndrome” value ([5]; very servere purimycin (high dose) induced nephrotic syndrome, result in words) was “less potent effect”, the “increase of GFR (creatinin clearance) compared to the LPS-Vehicle group” value [2] was 57% and the “survival during 3 days of LPS-administration” value [2] was “All animals survived”. The “Differential counting of cells %, Eosinofiles” value [3] was 1.8±1.3%, the “Differential counting of cells %, Lymfocytes” value [3] was 72.3 ± 12.1% and the “Differential counting of cells %, Monocytes” value [3] was 12.3 ± 7.4%.
